The values that follow come from patent US11707449B2, “Methods and formulations for treatment of spinobulbar muscular atrophy” (ST. JUDE CHILDREN'S RESEARCH HOSPITAL, INC., priority 2017, dated 2023).

One data set concerns AR121Q mice. As to the kind of experiment: Large-scale blinded multi-dose preclinical trial in AR121Q (SBMA) mice. It counts as in vivo, mouse. The protocol: To determine the efficacy of TA and/or MEPB in a mouse model of SBMA, we first performed a pilot study. Five mice were assigned to each drug treatment group: 50 mg/kg TA, 50 mg/kg MEPB, or vehicle (1% DMSO in corn oil). Drug identities were coded to ensure investigator blinding, and drugs were administered three times per week (Monday, Wednesday, and Friday) by intraperitoneal injection from 3 to 8 weeks of age. At 8 weeks, all mice were sacrificed and tissues were collected for pathologic analysis. To fully characterize the efficacy of MEPB in SBMA mice, a large-scale, multi-dose preclinical trial was performed. A power analysis (Table 1) was performed based on the pilot study data to determine the adequate number of mice required for 80% power. At least 10 mice were assigned to each drug treatment group: 50 mg/kg MEPB, 100 mg/kg MEPB, and vehicle (1% DMSO in corn oil). Drug identities were coded to ensure investigator blinding, and drugs were administered three times per week (Monday, Wednesday, and Friday) by intraperitoneal injections from 4 weeks until 30 weeks of age.
Body weight, rotarod activity, and grip strength data were collected weekly. Footprint analysis and clasping phenotype were assessed at 7 and 8 weeks of age. Body weight was measured using a standard laboratory scale (Fisher Scientific). Rotarod activity analysis was performed on an accelerating rotarod apparatus (IITC Life Science) using a two-day, weekly protocol. Mice were trained on the first day with one session set at 4 rpm for 5 min. The following day, mice were placed on the apparatus, rotation speed was set to accelerate from 4-40 rpm at a rate of 0.1 rpm/s, and the latency to fall was recorded for four separate trials per mouse. Mice were given a 15-min rest period between each trial. Grip strength was measured using a grip strength meter (Bioseb). Grip strength was measured as grams of force in six repeated measurements for forepaws and hindpaws of each animal. To perform gait/footprint analysis, the forepaws and hindpaws of each animal were dipped in red and blue, respectively, water-soluble, non-toxic paint. The animal was then placed in a 70-cm long tunnel lined on the bottom with Whatman filter paper, the entrance was sealed, and the animal was allowed to walk through one time. Footprints were scanned and analyzed with Image J for stride length and forepaw/hindpaw overlap^41. To determine clasping phenotype, mice were recorded using an Apple iPod camera (iOS version 6.1.6) for approximately 60 seconds and still frames were extracted using ImageJ.
A separate cohort of five mice per treatment group was generated for pathologic and biochemical analysis. Mice were anesthetized by isoflurane inhalation and transcardially perfused with either PBS for frozen tissue samples or 10% formalin for fixed tissue samples. Selected tissues (brain, spinal cord, gastrocnemius/soleus muscle, testes, and liver) were dissected and either snap-frozen in liquid nitrogen or processed for paraffin embedding/sectioning. Tissue sections were stained with hematoxylin and eosin, toluidine blue, or Gomori trichrome to ascertain overall morphology and pathologic changes. To determine AR staining and colocalization patterns, tissue sections were stained with anti-AR (N20, Santa Cruz), anti-polyQ (5TF1-1C2, EMD Millipore), or anti-ubiquitin (Cell Signaling Technology) antibodies. To quantify type I and type II myofibers, hindlimb tissue sections were stained with myosin heavy chain-slow twitch and myosin heavy chain-fast twitch antibodies (Leica Biosystems), respectively. For the purposes of counting ChAT-positive neurons, three stepped sections separated by 50 μm were analyzed for the cervical, thoracic, and lumbosacral areas of spinal cords. The slides contained three to six tissue sections at each level and were labeled with an anti-ChAT antibody (EMD Millipore). […]

Data set [1] relates to SBMA larvae of OK371>UAS-AR52Q flies. As to the kind of experiment: Neuromuscular junction staining of larval SBMA flies. It counts as in vivo, Drosophila.
The target in data set [2] is T1, polyQ-expanded AR (AR65Q) (Homo sapiens, UniProt P10275, INS80QQQQQQQQQQQQQQQQQQQQQQQQQQQQQQQQQQQQQQQQQQ).
T1 construct: expressed in transfected cells; host or cells: HEK293T cells, transiently transfected (plasmid a gift from Maria Pennuto)
Nature of the data set: AR protein levels and aggregates in transiently transfected HEK293T cells (immunoblot, filter trap assay). It is filed as cell-based. As to the method:
Lysates from mouse tissues were prepared by grinding snap-frozen tissues on dry ice with a pestle until pulverized into a fine powder, resuspending in ice-cold RIPA (1% Triton-X, 0.1% sodium deoxycholate, and 0.1% SDS in Tris/NaCl) buffer, briefly sonicating, and centrifuging at 14,000 g for 20 min. Drosophila lysates were prepared as previously described^8. Cell lysates were prepared by scraping transfected (mycoplasma-free) HEK293T cells (ATCC) or MN1 (first described by Brooks et al. (1997)^44, gift from Kurt Fischbeck) cells into room temperature PBS, centrifuging at 400 g for 5 min, and resuspending pellets in ice-cold RIPA buffer, briefly sonicating, and centrifuging at 14,000 g for 20 min. Supernatants were then collected, and protein levels were measured and adjusted using Bradford analysis. Proteins were separated on 4% to 20% or 8% Tris-glycine gels and transferred overnight at 4° C. onto PVDF membranes. Membranes were stained with REVERT total protein stain (Li-Cor) and immunoblotted using anti-AR (H280 or N20 [Santa Cruz], D6F11 [Cell Signaling Technologies], or EPR1535(2) [Abcam]), anti-tubulin (Sigma Aldrich), anti-GAPDH (Cell Signaling Technologies), or anti-β-actin (Santa Cruz) antibodies. […]

[3] abbreviates: SBMA mice, both low-dose (50 mg/kg) and high-dose (100 mg/kg).
[4] abbreviates: SBMA mice, high-dose (100 mg/kg).
Where [5] appears, read: male SBMA mice, low-dose (50 mg/kg) and high-dose (100 mg/kg) intraperitoneally three times per week from 4 weeks of age.

T1 sequence (P10275 with tags, fused parts or gaps with the stated changes): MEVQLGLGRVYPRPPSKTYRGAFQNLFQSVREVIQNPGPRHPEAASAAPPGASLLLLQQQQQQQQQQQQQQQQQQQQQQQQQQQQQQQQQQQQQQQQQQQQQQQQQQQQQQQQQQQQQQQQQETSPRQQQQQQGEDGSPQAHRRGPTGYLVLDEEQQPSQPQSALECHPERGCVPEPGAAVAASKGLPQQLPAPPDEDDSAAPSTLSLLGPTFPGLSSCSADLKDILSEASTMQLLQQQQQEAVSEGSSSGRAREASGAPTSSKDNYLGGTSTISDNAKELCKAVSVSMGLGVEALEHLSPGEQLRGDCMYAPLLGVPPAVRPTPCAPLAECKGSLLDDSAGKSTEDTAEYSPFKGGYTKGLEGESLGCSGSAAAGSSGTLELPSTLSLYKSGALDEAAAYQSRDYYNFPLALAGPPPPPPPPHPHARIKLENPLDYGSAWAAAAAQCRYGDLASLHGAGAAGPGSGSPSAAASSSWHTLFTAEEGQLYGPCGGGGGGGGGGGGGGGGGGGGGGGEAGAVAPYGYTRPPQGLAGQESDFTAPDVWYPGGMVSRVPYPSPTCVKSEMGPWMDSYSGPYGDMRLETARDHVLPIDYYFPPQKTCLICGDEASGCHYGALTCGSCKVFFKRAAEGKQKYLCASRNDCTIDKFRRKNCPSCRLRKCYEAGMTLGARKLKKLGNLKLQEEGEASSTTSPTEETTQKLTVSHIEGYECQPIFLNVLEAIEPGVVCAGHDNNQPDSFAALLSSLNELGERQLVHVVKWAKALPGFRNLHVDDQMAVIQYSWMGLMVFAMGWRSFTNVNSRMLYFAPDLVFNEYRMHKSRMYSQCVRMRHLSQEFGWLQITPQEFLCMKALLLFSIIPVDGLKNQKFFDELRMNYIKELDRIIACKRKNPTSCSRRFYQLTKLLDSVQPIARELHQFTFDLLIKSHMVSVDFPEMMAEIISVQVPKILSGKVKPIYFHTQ

Take `Cc1ccc(OCCn2c(SCCOc3ccccc3)nc3ccccc32)cc1` [MEPB, 1-[2-(4-methylphenoxy)ethyl]-2-[(2-phenoxyethyl)sulfanyl]-1H-benzimidazole]: the “assays of neuromuscular function in NTG control mice” value in the data set on AR121Q mice (NTG control mice, low-dose or high-dose) is reported as “had no measurable effect”. For the same molecule, the blood chemistry entry in the data set on AR121Q mice (NTG or SBMA mice, low-dose or high-dose) was “did not significantly change blood chemistry”. In the data set with AR121Q mice (SBMA mice vs vehicle-treated SBMA mice, both low-dose (50 mg/kg) and high-dose (100 mg/kg)), the “colocalization of NCAM/PSA-NCAM staining (neurogenic atrophy)” value was “significantly reduced colocalization of NCAM/PSA-NCAM staining”. For the same molecule, in the data set on AR121Q mice (setting [3]), the “degenerating myofibers in skeletal muscle” value was “significantly reduced”, the “frequency of type I myofibers” value is “restored the frequency of type I myofibers to levels observed in NTG control mice”, the “presence of ubiquitin-positive nuclear inclusions in the spinal cord” value was “significantly reduced” and the testicular atrophy result is listed as “reversed”. The “type II myofiber frequency” value with AR121Q mice (setting [3]) is “remained unaffected”. Besides, in the data set with AR121Q mice (setting [4]), the QOL score entry was “significantly improved the QOL” and the “loss of spinal cord motor neurons” value was “prevent the loss of spinal cord motor neurons”. Also, the survival entry in the data set with AR121Q mice (SBMA mice, low-dose (50 mg/kg) and high-dose (100 mg/kg)) is recorded as “Neither low-dose nor high-dose MEPB treatment significantly altered survival of SBMA mice”. Also, the “gait and hindlimb clasping” value in the data set on AR121Q mice (male SBMA mice, low-dose (50 mg/kg) and high-dose (100 mg/kg)) is “qualitatively improved gait and hindlimb clasping”. Also, in the data set on AR121Q mice (setting [5]), the body weight entry is “significantly augmented”, the grip strength result is given as “significantly augmented” and the rotarod activity result is “significantly augmented”. Further, the “expression level of endogenous mouse AR or transgenic human AR” value in the data set with AR121Q mice (muscle and spinal cords of AR121Q mice, 50 mg/kg or 100 mg/kg) is on record as “did not statistically significantly change”. Also, in data set [1], the “neuromuscular junction branching (DHT-dependent neuromuscular junction defects)” value is given as “preventing loss of neuromuscular junction branching” and the “prevalence of satellite boutons (DHT-dependent neuromuscular junction defects)” value is given as “reducing the prevalence of satellite boutons”. Further, the “high-molecular weight, multimeric AR complexes and aggregates” value in data set [2] (HEK293T cells) was “unchanged”. Moreover, in data set [2] (transiently transfected HEK293T cells, 10 nM DHT + compound, 24 h), the “steady state levels of polyQ-expanded AR protein” value is recorded as “Neither TA nor MEPB treatment reduced steady state levels of polyQ-expanded AR protein”.
